Experiments:
SNL L5/L6 rats = test: L5/L6 spinal nerve ligation (SNL) Chung pain model, tactile allodynia (von Frey); format: in vivo, rat
Source text: The Spinal Nerve Ligation is an animal model representing peripheral nerve injury generating a neuropathic pain syndrome. In this model experimental animals develop the clinical symptoms of tactile allodynia and hyperalgesia. L5/L6 Spinal nerve ligation (SNL) injury was induced using the procedure of Kim and Chung (Kim et al., Pain 50:355-363 (1992)) in male Sprague-Dawley rats (Harlan; Indianapolis, Ind.) weighing 200 to 250 grams.
Anaesthesia was induced with 2% isofluorane in O2 at 2 L/min and maintained with 0.5% isofluorane in O2. Rats were then shaved and aseptically prepared for surgeries. A 2 cm paraspinal incision was made at the level of L4-S2. L4/L5 was exposed by removing the transverse process above the nerves with a small rongeur. The L5 spinal nerve is the larger of the two visible nerves below the transverse process and lies closest to the spine. The L6 spinal nerve is located beneath the corner of the slope bone. A home-made glass Chung rod was used to hook L5 or L6 and a pre-made slip knot of 4.0 silk suture was placed on the tip of the rod just above the nerve and pulled underneath to allow for the tight ligation. The L5 and L6 spinal nerves were tightly ligated distal to the dorsal root ganglion. The incision was closed, and the animals were allowed to recover for 5 days.
Sham control rats underwent the same operation and handling as the experimental animals, but without SNL.
Prior to initiating drug delivery, baseline behavioural testing data is obtained. At selected times after infusion of the Test or Control Article behavioural data can then be collected again.
The assessment of tactile allodynia consisted of measuring the withdrawal threshold of the paw ipsilateral to the site of nerve injury in response to probing with a series of calibrated von Frey filaments (innocuous stimuli). Animals were acclimated to the suspended wire-mesh cages for 30 min before testing. Each von Frey filament was applied perpendicularly to the plantar surface of the ligated paw of rats for 5 sec. A positive response was indicated by a sharp withdrawal of the paw. For rats, the first testing filament is 4.31. Measurements were taken before and after administration of test articles. […] The protocol was repeated until three changes in behaviour were determined (“up and down” method) (Chaplan et al., J. Neurosci. Methods 53:55-63 (1994)). The 50% paw withdrawal threshold was determined as (10^[Xf+kδ])/10,000, where Xf=the value of the last von Frey filament employed, k=Dixon value for the positive/negative pattern, and δ=the logarithmic difference between stimuli. The cut-off values for rats were no less than 0.2 g and no higher than 15 g (5.18 filament); for mice no less than 0.03 g and no higher than 2.34 g (4.56 filament). A significant drop of the paw withdrawal threshold compared to the pre-treatment baseline is considered tactile allodynia.
Rat SNL tactile allodynia were tested for Compounds 1-4 and 9-12 at 60 minutes compared to baseline and post-SNL. […] FIG. 1 is a plot of the antiallodynic effects of compound 4 (i.p.) tested in SNL L5/L6 rats using von Frey at three different doses, namely 3, 10 and 30 mpk, compared to vehicle alone. […] Rat SNL tactile allodynia were tested at 1, 2 and 4 hours after drug treatment (Table 6).

male CF1 mice = test: 6 Hz psychomotor seizure model of partial epilepsy; format: in vivo, mouse; design: Epilepsy 6 Hz (% Protected): concentration or dose not given beside the values
Procedure: Compounds were evaluated for the protection against seizures induced by a 6 Hz, 0.2 ms rectangular pulse width of 3 s duration, at a stimulus intensity of 32 mA (CC97) applied to the cornea of male CF1 mice (20-30 g) according to procedures described by Barton et al, “Pharmacological Characterization of the 6 Hz Psychomotor Seizure Model of Partial Epilepsy,” Epilepsy Res. 47(3):217-27 (2001). Seizures are characterised by the expression of one or more of the following behaviours: stun, forelimb clonus, twitching of the vibrissae and Straub-tail immediately following electrical stimulation.

[1] = tested on: Lamina I/II spinal cord neurons; test: Lamina assay: current-clamp recordings on lamina I/II spinal cord neurons; format: cell-based, rat; settings: lamina I and II neurons
Source text: Male Wistar rats (P6 to P9 for voltage-clamp and P15 to P18 for current-clamp recordings) were anaesthetized through intraperitoneal injection of Inactin (Sigma). The spinal cord was then rapidly dissected out and placed in an ice-cold solution protective sucrose solution containing (in mM): 50 sucrose, 92 NaCl, 15 D-Glucose, 26 NaHCO3, 5 KCl, 1.25 NaH2PO4, 0.5 CaCl2, 7 MgSO4, 1 kynurenic acid, and bubbled with 5% CO2/95% O2. The meninges, dura, and dorsal and ventral roots were then removed from the lumbar region of the spinal cord under a dissecting microscope. The “cleaned” lumbar region of the spinal cord was glued to the vibratome stage and immediately immersed in ice cold, bubbled, sucrose solution. For current-clamp recordings, 300 to 350 μm parasagittal slices were cut to preserve the dendritic arbour of lamina I neurons, while 350 to 400 μm transverse slices were prepared for voltage-clamped Nav channel recordings. Slices were allowed to recover for 1 hour at 35° C. in Ringer solution containing (in mM): 125 NaCl, 20 D-Glucose, 26 NaHCO3, 3 KCl, 1.25 NaH2PO4, 2 CaCl2, 1 MgCl2, 1 kynurenic acid, 0.1 picrotoxin, bubbled with 5% CO2/95% O2. The slice recovery chamber was then returned to room temperature (20 to 22° C.) and all recordings were performed at this temperature. […]

Structure (SMILES) | Rat SNL Tactile Allodynia (% Antiallodynia) (SNL L5/L6 rats; 1 hour after drug treatment) [%] | Rat SNL tactile allodynia, anti-allodynia (statement) (SNL L5/L6 rats; compared to baseline and post-SNL) | Antiallodynic effects compared to vehicle (FIG. 1) (SNL L5/L6 rats; i.p., 3, 10 and 30 mpk, 60 minutes after drug administration, von Frey) | Epilepsy 6 Hz (% Protected) (male CF1 mice; 0.25 hour) [%] | Epilepsy 6 Hz (% Protected) (male CF1 mice; 0.5 hour) [%] | Epilepsy 6 Hz (% Protected) (male CF1 mice; 1 hour) [%] | Epilepsy 6 Hz (% Protected) (male CF1 mice; 2 hours) [%] | ED50 (male CF1 mice; Mus musculus, 32 mA, mice) [mg/kg] | % Spike Change (Mean; % change from control) [1] [%] | Rat SNL Tactile Allodynia (% Antiallodynia) (SNL L5/L6 rats; 2 hours after drug treatment) [%] | Rat SNL Tactile Allodynia (% Antiallodynia) (SNL L5/L6 rats; 4 hours after drug treatment) [%] | Epilepsy 6 Hz (% Protected) (male CF1 mice; 4 hours) [%]
O=C1CN(C(=O)CC(c2ccccc2)c2ccccc2)CCN1 [Compound 4, 4-(3,3-diphenylpropanoyl)piperazin-2-one] | 92 | significant antiallodynia | statistically significant antiallodynic effects | 50 | 88 | 13 | 25 | 192 | −5.3 | – | – | –
O=C1CN(C(=O)CC(c2ccc(Cl)cc2)c2ccc(Cl)cc2)CCN1 [Compound 3, 4-(3,3-bis(4-chlorophenyl)propanoyl)piperazin-2-one] | 51 | – | – | 0 | 0 | 0 | 0 | – | 28.7 | 49 | 30 | 0

Source: patent US8629149B2, “Oxopiperazine derivatives for the treatment of pain and epilepsy” (Zalicus Pharmaceuticals Ltd., priority 2009, dated 2014)
